Source: US7160888B2, “[1,8]naphthyridin-2-ones and related compounds for the treatment of schizophrenia” (Warner Lambert Company LLC, priority 2003, dated 2007)

Target: D2 receptor (Homo sapiens, UniProt P14416)
Experiment: [3H]Thymidine uptake assay for D2 intrinsic activity
Format: cell-based
Conditions: test compound 1 μM, 1 μM Quinpirole = 100% intrinsic activity

D2 receptor, sequence (P14416 whole entry): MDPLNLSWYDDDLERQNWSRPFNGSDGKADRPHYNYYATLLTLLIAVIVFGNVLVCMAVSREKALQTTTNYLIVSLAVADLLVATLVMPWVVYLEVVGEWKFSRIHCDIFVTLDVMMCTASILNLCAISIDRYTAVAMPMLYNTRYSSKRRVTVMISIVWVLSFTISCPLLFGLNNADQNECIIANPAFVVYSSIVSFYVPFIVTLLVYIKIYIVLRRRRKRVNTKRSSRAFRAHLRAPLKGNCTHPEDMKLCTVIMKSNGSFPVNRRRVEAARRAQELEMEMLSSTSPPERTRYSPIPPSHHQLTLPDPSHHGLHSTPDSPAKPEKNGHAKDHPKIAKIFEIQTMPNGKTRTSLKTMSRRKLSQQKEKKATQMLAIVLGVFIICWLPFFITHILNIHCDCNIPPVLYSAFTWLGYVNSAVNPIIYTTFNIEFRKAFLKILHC

| SMILES | Emax at 1 µM (Table 1) | Emax at 1 µM (Table 2) |
| --- | --- | --- |
| COc1ccc2c(N3CCN(CCCCOc4ccc5ccc(=O)[nH]c5n4)CC3)cccc2c1 [Example B61, 7-{4-[4-(6-Methoxy-naphthalen-1-yl)-piperazin-1-yl]-butoxy}-1H-[1,8]naphthyridin-2-one] | 18% |  |
| CC(=O)c1ccc2cccc(N3CCN(CCCCOc4ccc5ccc(=O)[nH]c5n4)CC3)c2c1 [Example B62, 7-{4-[4-(7-Acetyl-naphthalen-1-yl)-piperazin-1-yl]-butoxy}-1H-[1,8]naphthyridin-2-one] | 21% |  |
| CC(=O)c1ccc2c(N3CCN(CCCCOc4ccc5ccc(=O)[nH]c5n4)CC3)cccc2c1 [Example B63, 7-{4-[4-(6-Acetyl-naphthalen-1-yl)-piperazin-1-yl]-butoxy}-1H-[1,8]naphthyridin-2-one] | 18% |  |
| CC(=O)c1cccc2c(N3CCN(CCCCOc4ccc5ccc(=O)[nH]c5n4)CC3)cccc12 [Example B64, 7-{4-[4-(5-Acetyl-naphthalen-1-yl)-piperazin-1-yl]-butoxy}-1H-[1,8]naphthyridin-2-one] | 27% |  |
| CC(=O)c1ccc(N2CCN(CCCCOc3ccc4ccc(=O)[nH]c4n3)CC2)c2ccccc12 [Example B65, 7-{4-[4-(4-Acetyl-naphthalen-1-yl)-piperazin-1-yl]-butoxy}-1H-[1,8]naphthyridin-2-one] | 10% |  |
| CC(=O)c1ccc2ccccc2c1N1CCN(CCCCOc2ccc3ccc(=O)[nH]c3n2)CC1 [Example B66, 7-{4-[4-(2-Acetyl-naphthalen-1-yl)-piperazin-1-yl]-butoxy}-1H-[1,8]naphthyridin-2-one] | 33% |  |
| N#Cc1ccc2cccc(N3CCN(CCCCOc4ccc5ccc(=O)[nH]c5n4)CC3)c2c1 [Example B67, 8-{4-[4-(7-Oxo-7,8-dihydro-[1,8]naphthyridin-2-yloxy)-butyl]-piperazin-1-yl}-naphthalene-2-carbonitrile] | 39% |  |
| Cn1c(=O)ccc2ccc(OCCCCN3CCN(c4cccc5ccccc45)CC3)nc21 [Example B68, 1-Methyl-7-[4-(4-naphthalen-1-yl-piperazin-1-yl)-butoxy]-1H-[1,8]naphthyridin-2-one] | 17% |  |
| O=c1ccc2ccc(OCCCN3CCN(c4cccc(Cl)c4Cl)CC3)nc2[nH]1 [Example C1, 7-{3-[4-(2,3-Dichloro-phenyl)-piperazin-1-yl]-propoxy}-1H-[1,8]naphthyridin-2-one] | 43% |  |
| CC1(C)CC(=O)Nc2nc(OCCCCN3CCN(c4cccc5cccnc45)CC3)ccc21 [Example C1′, 4,4-Dimethyl-7-[4-(4-quinolin-8-yl-piperazin-1-yl)-butoxy]-3,4-dihydro-1H-[1,8]naphthyridin-2-one] |  | 38% |
| O=c1ccc2ccc(OCCCN3CCN(c4cccc5ccccc45)CC3)nc2[nH]1 [Example C2, 7-[3-(4-Naphthalen-1-yl-piperazin-1-yl)-propoxy]-1H-[1,8]naphthyridin-2-one] | 24% |  |
| CC1(C)CC(=O)Nc2nc(OCCCCN3CCN(c4cccc5c4OCCO5)CC3)ccc21 [Example C2′, 7-{4-[4-(2,3-Dihydro-benzo[1,4]dioxin-5-yl)-piperazin-1-yl]-butoxy}-4,4-dimethyl-3,4-dihydro-1H-[1,8]naphthyridin-2-one] |  | 22% |
| O=C1CCc2ccc(OCCCN3CCN(c4cccc5ccccc45)CC3)nc2N1 [Example C3, 7-[3-(4-Naphthalen-1-yl-piperazin-1-yl)-propoxy]-3,4-dihydro-1H-[1,8]naphthyridin-2-one] | 22% |  |
| CC1(C)CC(=O)Nc2nc(OCCCCN3CCN(c4cccc5c4NC(=O)CC5)CC3)ccc21 [Example C3′, 4,4-Dimethyl-7-{4-[4-(2-oxo-1,2,3,4-tetrahydro-quinolin-8-yl)-piperazin-1-yl]-butoxy}-3,4-dihydro-1H-[1,8]naphthyridin-2-one] |  | 19% |
| O=c1ccc2ccc(OCCN3CCN(c4cccc(Cl)c4Cl)CC3)nc2[nH]1 [Example C4, 7-{2-[4-(2,3-Dichloro-phenyl)-piperazin-1-yl]-ethoxy}-1H-[1,8]naphthyridin-2-one] | 2% |  |
